Assay results taken from patent publication US20080262097A1, “Formulations” (priority 2005, published 2008).
Converted amounts (≈) assume the structure as drawn. Like-named read-outs stand apart in the source and are kept apart here.

Columns and labels:
S. aureus ATCC 29213 [1] = assay: MBC assay; format: cell-based, Staphylococcus aureus
Experimental: 1. Staphylococcus aureus—the principal staphylococcal test micro-organism used in these studies was Staphylococcus aureus ATCC 29213. This strain is the one recommended for QC/QA purposes in Minimum Inhibitory Concentration (MIC) assays by the US Clinical and Laboratory Standards Institute (formerly the NCCLS), an FDA-recognised body. […] The staphylococci and enterococci were cultured and maintained on Mueller-Hinton Medium (agar and broth) at pH 7.2; they were incubated aerobically at 37° C. for 24 hours. This assay, normally carried out after an MIC assay, determines the minimum concentration of a compound that is lethal to the micro-organism being tested. […] These samples were then individually sub-cultured on non-selective agar medium, under the incubation conditions described above. Following incubation they were examined visually for bacterial growth.

P. acnes NCTC 737 [2] = assay: Disc diffusion assay (DDA); format: cell-based, Propionibacterium acnes; conditions: 200 μg per disc
Experimental: (§1) 2. Propionibacterium spp.—the principal propionibacterial strain used in these studies was Propionibacterium acnes NCTC 737.
(§2) The Propionibacterium spp organisms were cultured and maintained on Wilkins-Chalgren Anaerobe Medium (agar and broth) at pH 6.0; cultures were incubated anaerobically at 37° C. for 72 hours.
A sterile paper disc was impregnated with a sample of the test compound and a minimum of 30 minutes allowed for the solvents to evaporate as far as possible. The disc was then placed on an agar plate onto which the test micro-organism had been inoculated. The plate was then incubated under the conditions described above, following which it was examined visually for signs of bacterial growth. […] The diameter of this zone of “inhibition” was measured using a ProtoCOL™ automated zone sizer (Synbiosis, Cambridge, UK).
The area of the zone of inhibition was calculated from the measured zone diameter (D) using the formula π(D/2)^2.
(§3) For all (S)DDA assays, 200 μg of each compound was loaded onto each disc.

P. acnes NCTC 737 [3] = assay: Synergy disc diffusion assay (SDDA); format: cell-based, Propionibacterium acnes; conditions: for SDDA area increase / SDDA increase: quinone + BP; for SDDA area increase: over larger single-compound zone; for SDDA increase: over larger single-compound zone diameter; for SDDA with BP: quinone combined with BP on one disc, 200 μg of each
Experimental: as §1, §2
This is a variation on the DDA method, in which two compounds are tested together for their combined antimicrobial activity. It provides a qualitative indication as to whether the compounds are likely to interact synergistically.
Two test compounds A and B were placed on a single paper disc and the above described DDA procedure repeated.
Each of the quinones was then subjected, in combination with BP, to the SDDA assay described above.
as §3

P. acnes NCTC 737 [4] = assay: Supplemented disc diffusion assay (DDA + salt or lipid); format: cell-based, Propionibacterium acnes; conditions: 200 μg per disc; for DDA + lipid: agar supplemented with lipid; for DDA + salt: agar supplemented with salt
Experimental: The Propionibacterium spp organisms were cultured and maintained on Wilkins-Chalgren Anaerobe Medium (agar and broth) at pH 6.0; cultures were incubated anaerobically at 37° C. for 72 hours. A sterile paper disc was impregnated with a sample of the test compound and a minimum of 30 minutes allowed for the solvents to evaporate as far as possible. The disc was then placed on an agar plate onto which the test micro-organism had been inoculated. The plate was then incubated under the conditions described above, following which it was examined visually for signs of bacterial growth. If the test compound had antimicrobial activity, a circular zone of no growth would be obtained around the disc. The diameter of this zone of “inhibition” was measured using a ProtoCOL™ automated zone sizer (Synbiosis, Cambridge, UK). In general, a greater diameter and/or area of the zone of inhibition indicates a greater antimicrobial activity in the relevant test compound, although other factors such as test compound mobility through the agar gel may also influence the result. Either the DDA or the SDDA tests may be carried out using an agar gel supplemented with blood, lipid and/or salt to simulate some of the major components present in human skin and to assess whether these substances might reduce the antimicrobial activity observed for the test compounds. Performance under these conditions can provide a more reliable indication of activity on topical application. […] MIC, MBC and DDA assays, as described above, were carried out using BP and a range of different benzoquinones and hydroquinones. Supplemented DDA assays, in the presence of salt and lipid, were also conducted.

S. aureus ATCC 29213 [5] = assay: Supplemented disc diffusion assay (DDA + salt, lipid or blood); format: cell-based, Staphylococcus aureus; conditions: 200 μg per disc (thymoquinone 50 μg); for DDA + blood: agar supplemented with blood; for DDA + lipid: agar supplemented with lipid; for DDA + salt: agar supplemented with salt
Experimental: The staphylococci and enterococci were cultured and maintained on Mueller-Hinton Medium (agar and broth) at pH 7.2; they were incubated aerobically at 37° C. for 24 hours. A sterile paper disc was impregnated with a sample of the test compound and a minimum of 30 minutes allowed for the solvents to evaporate as far as possible. The disc was then placed on an agar plate onto which the test micro-organism had been inoculated. The plate was then incubated under the conditions described above, following which it was examined visually for signs of bacterial growth. If the test compound had antimicrobial activity, a circular zone of no growth would be obtained around the disc. The diameter of this zone of “inhibition” was measured using a ProtoCOL™ automated zone sizer (Synbiosis, Cambridge, UK). In general, a greater diameter and/or area of the zone of inhibition indicates a greater antimicrobial activity in the relevant test compound, although other factors such as test compound mobility through the agar gel may also influence the result. Either the DDA or the SDDA tests may be carried out using an agar gel supplemented with blood, lipid and/or salt to simulate some of the major components present in human skin and to assess whether these substances might reduce the antimicrobial activity observed for the test compounds. Performance under these conditions can provide a more reliable indication of activity on topical application. […] MIC, MBC and DDA assays, as described above, were carried out using the test compound benzoyl peroxide (BP) and a range of different benzoquinones and hydroquinones. Supplemented DDA assays, in the presence of salt, lipid and blood, were also conducted. […] The exceptions were the thymoquinone assays, in which only 50 μg of the benzoquinone was used.

[6] = Staphylococcus aureus, ATCC29213, S. aureus ATCC 29213, Table 1 (Example 1), read-out: MBC
[7] = Table 10 (Example 8), zone diameter
[8] = S. aureus ATCC 29213, Table 1 (Example 1)

| SMILES | MBC (S. aureus ATCC 29213 [1]; S. aureus ATCC 29213, Table 5 (Example 5)) [mg/L] | MBC (S. aureus ATCC 29213 [1]; [6]) [mg/L] | DDA (P. acnes NCTC 737 [2]; Table 7, zone diameter) [mm] | DDA (P. acnes NCTC 737 [2]; [7]) | SDDA area increase (P. acnes NCTC 737 [3]) [%] | SDDA increase (P. acnes NCTC 737 [3]) [mm] | SDDA with BP (P. acnes NCTC 737 [3]) [mm] | DDA + lipid (P. acnes NCTC 737 [4]) [mm] | DDA + salt (P. acnes NCTC 737 [4]) [mm] | DDA + blood (S. aureus ATCC 29213 [5]) [mm] | DDA + lipid (S. aureus ATCC 29213 [5]) [mm] | DDA + salt (S. aureus ATCC 29213 [5]) [mm] | MBC (S. aureus ATCC 29213 [1]; Staphylococcus aureus, ATCC29213, S. aureus ATCC 29213, Table 5 (Example 5)) [mg/L] | MBC (S. aureus ATCC 29213 [1]; Staphylococcus aureus, ATCC29213, S. aureus ATCC 29213, Table 1 (Example 1)) [mg/L] | DDA (P. acnes NCTC 737 [2]; Table 11 (Example 9), mean of three replicates) [mm] | MBC (S. aureus ATCC 29213 [1]; [8]) [mg/L] |
| --- | --- | --- | --- | --- | --- | --- | --- | --- | --- | --- | --- | --- | --- | --- | --- | --- |
| O=C(OOC(=O)c1ccccc1)c1ccccc1 [benzoyl peroxide] | 250 (≈ 1030 µM) | 250 (≈ 1030 µM) | 24.25 | 19.25 (±0.18) mm | – | – | – | – | – | – | – | – | – | – | – | – |
| CC(C)(C)c1cc(O)ccc1O [TBHQ, t-butyl hydroquinone] | – | – | 9.95 | 8.65 (±0.31) mm | 211.51 | 18.55 | 42.80 | 10.37 | 19.48 | 10.89 | 31.44 | 54.16 | 15.6 (≈ 93.9 µM) | 7.8 (≈ 46.9 µM) | 15.0 | – |
| CC1=CC(=O)C(C(C)C)=CC1=O [thymoquinone, 2-iso-propyl-5-methyl-p-benzoquinone] | – | 15.6 (≈ 95 µM) | 27.46 | – | 79.46 | 9.33 | 36.79 | 49.01 | 46.49 | 0.0 | 18.99 | 20.54 | – | – | – | – |
| O=C1C=CC(=O)C=C1 [p-benzoquinone] | – | – | 24.87 | – | 77.78 | 8.29 | 33.16 | 37.98 | 31.44 | 20.31 | 29.05 | 27.49 | – | – | – | – |
| Oc1ccc(O)cc1 [p-hydroquinone] | – | – | 0.0 | – | 87.01 | 8.91 | 33.16 | 0.0 | 0.0 | 14.01 | 15.56 | 16.61 | – | – | – | 62.5 (≈ 568 µM) |
| Cc1c(O)ccc(O)c1C [2,3-dimethyl-p-hydroquinone] | – | – | 18.75 | – | 113.68 | 10.63 | 33.65 | 13.75 | 14.38 | 14.32 | 35.80 | 34.24 | – | – | – | 7.8 (≈ 56.5 µM) |
| CCc1cc(O)ccc1O [2-ethyl-p-hydroquinone] | – | – | 9.90 | – | 84.28 | 8.23 | 31.25 | 0.0 | 9.38 | 17.74 | 23.04 | 24.59 | – | – | – | 15.6 (≈ 113 µM) |
